{"source": "patent US4401604A", "about": "“Process for preparing thiosulfenamide derivatives of N-phosphonomethylglycine triesters” (Monsanto Company, priority 1981, dated 1983)", "format_in_all_cases": "in vivo", "key": {"Lambsquarters [1]": {"tested_on": "Lambsquarters", "assay": "Pre-emergent herbicidal activity", "conditions": "Table III; 11.2 kg/h; 2 WAT", "source_text": "(§1) A good grade of top soil is placed in aluminum pans and compacted to a depth of 0.95 to 1.27 cm. from the top of each pan. A predetermined number of seeds or vegetative propagules of each of several plant species are placed on top of the soil in each pan and then pressed down. Herbicidal compositions prepared as in the previous example are applied by admixture with or incorporation in the top layer of soil.\n(§2) In this method, the soil required to cover the seeds and propagules is weighed and admixed with a herbicidal composition containing a known amount of the active ingredient (compound of this invention). The pans are then filled with the admixture and leveled. Watering is carried out by permitting the soil in the pans to absorb moisture through apertures in the pan bottoms. The seed and propagule containing pans are placed on a wet sand bench and maintained for approximately two weeks under ordinary conditions of sunlight and watering. At the end of this period, the number of emerged plants of each species is noted and compared to an untreated control.\n(§3) The pre-emergent herbicidal activity index used below is based upon average percent control of each species as follows:\n(§4) Plant species in the table are identified by the same code letters used in the previous example."}, "Morningglory [2]": {"tested_on": "Morningglory", "assay": "Pre-emergent herbicidal activity", "conditions": "Table III; 11.2 kg/h; 2 WAT", "source_text": "as §1, §2, §3, §4"}, "Downy Brome [3]": {"tested_on": "Downy Brome", "assay": "Pre-emergent herbicidal activity", "conditions": "Table III; 11.2 kg/h; 2 WAT", "source_text": "as §1, §2, §3, §4"}, "Barnyardgrass": {"tested_on": "Barnyardgrass", "assay": "Pre-emergent herbicidal activity", "conditions": "Table III; 11.2 kg/h; 2 WAT", "source_text": "as §1, §2, §3, §4"}, "Quackgrass": {"tested_on": "Quackgrass", "assay": "Pre-emergent herbicidal activity", "conditions": "Table III; 11.2 kg/h; 2 WAT", "source_text": "as §1, §2, §3, §4"}, "Smartweed": {"tested_on": "Smartweed", "assay": "Pre-emergent herbicidal activity", "conditions": "Table III; 11.2 kg/h; 2 WAT", "source_text": "as §1, §2, §3, §4"}, "Yellow Nutsedge": {"tested_on": "Yellow Nutsedge", "assay": "Pre-emergent herbicidal activity", "conditions": "Table III; 11.2 kg/h; 2 WAT", "source_text": "as §1, §2, §3, §4"}, "Canada Thistle": {"tested_on": "Canada Thistle", "assay": "Pre-emergent herbicidal activity", "conditions": "Table III; 11.2 kg/h; 2 WAT", "source_text": "as §1, §2, §3, §4"}, "Cocklebur": {"tested_on": "Cocklebur", "assay": "Pre-emergent herbicidal activity", "conditions": "Table III; 11.2 kg/h; 2 WAT", "source_text": "as §1, §2, §3, §4"}, "Velvetleaf": {"tested_on": "Velvetleaf", "assay": "Pre-emergent herbicidal activity", "conditions": "Table III; 11.2 kg/h; 2 WAT", "source_text": "as §1, §2, §3, §4"}, "Johnsongrass": {"tested_on": "Johnsongrass", "assay": "Pre-emergent herbicidal activity", "conditions": "Table III; 11.2 kg/h; 2 WAT", "source_text": "as §1, §2, §3, §4"}, "Crabgrass": {"tested_on": "Crabgrass", "assay": "Post-emergence herbicidal activity, greenhouse", "conditions": "Table II", "source_text": "(§5) A good grade of top soil is placed in aluminum pans having holes in the bottom and compacted to a depth of 0.95 to 1.27 cm. from the top of the pan. A predetermined number of seeds of each of several dicotyledonous and monocotyledonous annual plant species and/or vegetative propagules for the perennial plant species are placed on the soil and pressed into the soil surface. The seeds and/or vegetative propagules are covered with soil and leveled. The pans are then placed on a sand bench in the greenhouse and watered from below as needed. After the plants reach the desired age (two to three weeks), each pan except for the control pans is removed individually to a spraying chamber and sprayed by means of an atomizer operating at a positive air pressure of approximately 1.46 kg/cm^2 absolute. The atomizer contains 6 ml. of a solution or suspension of the chemical. In that 6 ml., is an amount of a cyclohexanone emulsifying agent mixture to give a spray solution or suspension which contains about 0.4% by weight of the emulsifier. The spray solution or suspension contains a sufficient amount of the candidate chemical in order to give application rates corresponding to those set forth in the tables. The spray solution is prepared by taking an aliquot of a 1.0% by weight stock solution or suspension of the candidate chemical in an organic solvent such as acetone or tetrahydrofuran or in water. The emulsifying agent employed is a mixture comprising 35 weight percent butylamine dodecylbenzene sulfonate and 65 weight percent of a tall oil ethylene oxide condensate having about 11 moles of ethylene oxide per mole of tall oil. The pans are returned to the greenhouse and watered as before and the injury to the plants as compared to the control is observed at approximately two and four weeks as indicated in the tables under WAT and the results recorded. In some instances, the two-week observations are omitted.\n(§6) The post-emergence herbicidal activity index used in Table I is as follows:\n(§7) The plant species utilized in these tests are identified by letter in accordance with the following legend: […]"}, "Lambsquarters [4]": {"tested_on": "Lambsquarters", "assay": "Post-emergence herbicidal activity, greenhouse", "source_text": "as §5, §6, §7"}, "Wild Buckwheat": {"tested_on": "Wild Buckwheat", "assay": "Post-emergence herbicidal activity, greenhouse", "conditions": "Table II", "source_text": "as §5, §6, §7"}, "Morningglory [5]": {"tested_on": "Morningglory", "assay": "Post-emergence herbicidal activity, greenhouse", "source_text": "as §5, §6, §7"}, "Downy Brome [6]": {"tested_on": "Downy Brome", "assay": "Post-emergence herbicidal activity, greenhouse", "source_text": "as §5, §6, §7"}, "Sugar Beet": {"tested_on": "Sugar Beet", "assay": "Post-emergence herbicidal activity, greenhouse", "conditions": "Table II", "source_text": "as §5, §6, §7"}, "Soybean": {"tested_on": "Soybean", "assay": "Post-emergence herbicidal activity, greenhouse", "conditions": "Table II", "source_text": "as §5, §6, §7"}, "Sorghum": {"tested_on": "Sorghum", "assay": "Post-emergence herbicidal activity, greenhouse", "conditions": "Table II", "source_text": "as §5, §6, §7"}}}
{"smiles": "O=C(CN(CP(=O)(Oc1ccccc1)Oc1ccccc1)SSCCc1ccccc1)OCc1ccccc1", "note": "[IV, Glycine, N-[(diphenoxyphosphinyl)methyl]-N-[(2-phenylethyl)dithio]-, phenylmethyl ester]", "values": [{"measurement": "pre-emergent herbicidal activity index", "setting": "Lambsquarters [1]", "result": "0 (0-24% control)"}, {"measurement": "pre-emergent herbicidal activity index", "setting": "Morningglory [2]", "result": "0 (0-24% control)"}, {"measurement": "pre-emergent herbicidal activity index", "setting": "Downy Brome [3]", "result": "0 (0-24% control)"}, {"measurement": "pre-emergent herbicidal activity index", "setting": "Barnyardgrass", "result": "0 (0-24% control)"}, {"measurement": "pre-emergent herbicidal activity index", "setting": "Quackgrass", "result": "1 (25-49% control)"}, {"measurement": "pre-emergent herbicidal activity index", "setting": "Smartweed", "result": "0 (0-24% control)"}, {"measurement": "pre-emergent herbicidal activity index", "setting": "Yellow Nutsedge", "result": "0 (0-24% control)"}, {"measurement": "pre-emergent herbicidal activity index", "setting": "Canada Thistle", "result": "3 (75-100% control)"}, {"measurement": "pre-emergent herbicidal activity index", "setting": "Cocklebur", "result": "0 (0-24% control)"}, {"measurement": "pre-emergent herbicidal activity index", "setting": "Velvetleaf", "result": "0 (0-24% control)"}, {"measurement": "pre-emergent herbicidal activity index", "setting": "Johnsongrass", "result": "0 (0-24% control)"}, {"measurement": "post-emergence herbicidal activity index", "setting": "Crabgrass; 0.28 kg/h, 2 WAT", "result": "0 (0- 24% control)"}, {"measurement": "post-emergence herbicidal activity index", "setting": "Crabgrass; 1.12 kg/h, 4 WAT", "result": "2 (50-74% control)"}, {"measurement": "post-emergence herbicidal activity index", "setting": "Crabgrass; 5.6 kg/h, 4 WAT", "result": "4 (100% control)"}, {"measurement": "post-emergence herbicidal activity index", "setting": "Lambsquarters [4]; Table I, 5.6 kg/h, 4 WAT", "result": "3 (75-99% control)"}, {"measurement": "post-emergence herbicidal activity index", "setting": "Lambsquarters [4]; Table I, 11.2 kg/h, 4 WAT", "result": "3 (75-99% control)"}, {"measurement": "post-emergence herbicidal activity index", "setting": "Lambsquarters [4]; Table II, 0.28 kg/h, 2 WAT", "result": "0 (0- 24% control)"}, {"measurement": "post-emergence herbicidal activity index", "setting": "Lambsquarters [4]; Table II, 1.12 kg/h, 4 WAT", "result": "3 (75-99% control)"}, {"measurement": "post-emergence herbicidal activity index", "setting": "Lambsquarters [4]; Table II, 5.6 kg/h, 4 WAT", "result": "3 (75-99% control)"}, {"measurement": "post-emergence herbicidal activity index", "setting": "Wild Buckwheat; 0.28 kg/h, 2 WAT", "result": "0 (0- 24% control)"}, {"measurement": "post-emergence herbicidal activity index", "setting": "Wild Buckwheat; 1.12 kg/h, 4 WAT", "result": "0 (0- 24% control)"}, {"measurement": "post-emergence herbicidal activity index", "setting": "Wild Buckwheat; 5.6 kg/h, 4 WAT", "result": "2 (50-74% control)"}, {"measurement": "post-emergence herbicidal activity index", "setting": "Morningglory [5]; Table I, 5.6 kg/h, 4 WAT", "result": "2 (50-74% control)"}, {"measurement": "post-emergence herbicidal activity index", "setting": "Morningglory [5]; Table I, 11.2 kg/h, 4 WAT", "result": "2 (50-74% control)"}, {"measurement": "post-emergence herbicidal activity index", "setting": "Morningglory [5]; Table II, 0.28 kg/h, 2 WAT", "result": "0 (0- 24% control)"}, {"measurement": "post-emergence herbicidal activity index", "setting": "Morningglory [5]; Table II, 1.12 kg/h, 4 WAT", "result": "0 (0- 24% control)"}, {"measurement": "post-emergence herbicidal activity index", "setting": "Morningglory [5]; Table II, 5.6 kg/h, 4 WAT", "result": "2 (50-74% control)"}, {"measurement": "post-emergence herbicidal activity index", "setting": "Downy Brome [6]; Table I, 5.6 kg/h, 4 WAT", "result": "0 (0- 24% control)"}, {"measurement": "post-emergence herbicidal activity index", "setting": "Downy Brome [6]; Table I, 11.2 kg/h, 4 WAT", "result": "1 (25-49% control)"}, {"measurement": "post-emergence herbicidal activity index", "setting": "Downy Brome [6]; Table II, 0.28 kg/h, 2 WAT", "result": "0 (0- 24% control)"}, {"measurement": "post-emergence herbicidal activity index", "setting": "Downy Brome [6]; Table II, 1.12 kg/h, 4 WAT", "result": "0 (0- 24% control)"}, {"measurement": "post-emergence herbicidal activity index", "setting": "Downy Brome [6]; Table II, 5.6 kg/h, 4 WAT", "result": "3 (75-99% control)"}, {"measurement": "post-emergence herbicidal activity index", "setting": "Sugar Beet; 0.28 kg/h, 2 WAT", "result": "0 (0- 24% control)"}, {"measurement": "post-emergence herbicidal activity index", "setting": "Sugar Beet; 1.12 kg/h, 4 WAT", "result": "3 (75-99% control)"}, {"measurement": "post-emergence herbicidal activity index", "setting": "Sugar Beet; 5.6 kg/h, 4 WAT", "result": "4 (100% control)"}, {"measurement": "post-emergence herbicidal activity index", "setting": "Soybean; 0.28 kg/h, 2 WAT", "result": "0 (0- 24% control)"}, {"measurement": "post-emergence herbicidal activity index", "setting": "Soybean; 1.12 kg/h, 4 WAT", "result": "0 (0- 24% control)"}, {"measurement": "post-emergence herbicidal activity index", "setting": "Soybean; 5.6 kg/h, 4 WAT", "result": "2 (50-74% control)"}, {"measurement": "post-emergence herbicidal activity index", "setting": "Sorghum; 0.28 kg/h, 2 WAT", "result": "0 (0- 24% control)"}, {"measurement": "post-emergence herbicidal activity index", "setting": "Sorghum; 1.12 kg/h, 4 WAT", "result": "0 (0- 24% control)"}]}
